Source: patent US20030069194A1, “Inhibition of viral replication by targeting RNA-DNA complexes” (priority 2001, published 2003)
Values joined by “and” are separate entries in the source; they are usually repeats but may differ in a detail not shown here. Equal entries are not always repeated. Structures can show the parent of a compound that is named as a salt.

Experiments:
18C-18D duplex = experiment: Isothermal titration calorimetry (ITC), 18C-18D duplex; type: binding, HIV-1; conditions: for ΔHb (binding enthalpy): 18C-18D duplex, ITC at 25° C.
Description: Isothermal calorimetric measurements were performed at 25° C. on a MicroCal VP-ITC (MicroCal, Inc., Northampton, Mass.). In a typical experiment, 5 μl aliquots of 500 μM aminoglycoside were injected from a 250 μl rotating (430 RPM) syringe into an isothermal sample chamber containing 1.31 mL of either a 18C-18R solution that was 10 μM in duplex or a 18C-18D solution that was 15 μM in duplex. Each experiment of this type was accompanied by the corresponding control experiment in which 5 μL aliquots of 500 μM drug were injected into a solution of buffer alone. The duration of each injection was 5 seconds and the delay between injections was 240 seconds. The initial delay prior to the first injection was 60 seconds. Each injection generated a heat burst curve (μcal/sec vs. sec). The area under each curve was determined by integration [using the Origin version 5.0 software (MicroCal, Inc., Northampton, Mass.)] to obtain a measure of the heat associated with that injection. The heat associated with each drug-buffer injection was subtracted from the corresponding heat associated with each drug-duplex injection to yield the heat of drug binding for that injection. The calorimeter was calibrated both electronically and chemically. Pilch, D. S., Kirolos, M. A., Liu, X., Plum, G. E. & Breslauer, K. J. Berenil [1,3-bis-(4′-amidinophenyl)triazene] binding to DNA duplexes and to a RNA duplex: Evidence for both intercalative and minor groove binding properties, Biochemistry 34, 9962-9976 (1995). All duplex solutions were preheated for 5 minutes at 85° C. and then cooled to room temperature prior to their use in the ITC experiments. The buffer solutions for the ITC experiments contained 10 mM PIPES (pH 6.0) and 5 mM MgCl2.
Table 1 summarizes the apparent association constants at 25° C. that were calculated using equations (1)-(3) for neomycin and paromomycin binding to the 18C-18R and 18C-18D duplexes. The drug binding enthalpies (ΔHb) required for extrapolation of the binding constants at Tm to common reference temperature of 25° C. using equation (3) were determined using isothermal titration calorinietry (ITC). […] Each of the heat burst curves in FIG. 4 corresponds to a single drug injection, with the seven injections resulting in a final drug to duplex ratio (rdup) of either 0.83 (when 18C-18D served as the target duplex) or 1.25 (when 18C-18R served as the target duplex). The areas under these heat burst curves were determined by integration to yield the associated injection heats. For each titration, the seven injection heats were similar in magnitude, an observation consistent with all of the injected drug being bound by the host duplex. These injection heats were corrected by subtraction of the corresponding dilution heats derived from the injection of identical amounts of drug into buffer alone. The resulting corrected injection heats then were divided by the total concentration of injected drug and averaged to yield the ΔHb values listed in Table 1.

HIV-1 = conditions: chronically infected cells; Zapp et al., Cell 74 (1993); cited from earlier work
18C-18R duplex = experiment: UV melting (thermal denaturation) and ΔTm analysis, 18C-18R duplex; type: binding, HIV-1; conditions: for Ka (ΔTm-derived association constant): extrapolated to 25° C.; for greater affinity for the 18C-18R duplex than for the 18C-18D duplex: 18C-18R versus 18C-18D; for enhancement of thermal stability of the duplex (ΔTm): 18C-18R, drug to duplex ratio (rdup) 3.0, FIG. 3a
Description: All UV absorbance experiments were conducted on an AVIV Model 14DS Spectrophotometer (Aviv Associates; Lakewood, N.J.) equipped with a thermoelectrically controlled cell holder. A quartz cell with a 1 cm pathlength was used for all the absorbance studies. Absorbance versus temperature profiles were measured at 274 nm with a 6 sec averaging time. The temperature was raised in 0.5° C. increments, and the samples were allowed to equilibrate for 1 min at each temperature setting. In these thermal denaturation studies, 18C-18R and 18C-18D solutions were […] in duplex and contained aminoglycoside at concentrations ranging from 0 to 12 μM. The duplex solutions were preheated for 5 min at 85° C. and then cooled to room temperature prior to addition of the drug. The buffer solutions for the UV melting experiments contained 10 mM PIPES (pH 6.0) and 5 mM MgCl2. For each optically detected transition, the melting temperature (Tm) was determined. Marky, L. A. & Breslauer, K. J. Calculating thermodynamic data for transitions of any molecularity from equilibrium melting curves, Biopolymers 26, 1601-1620 (1987).
The ΔTm method described below was used to derive aminoglycoside-duplex association constants (Ka). Measured aminoglycoside-induced changes in the thermal stability of the host duplexes (FIG. 3) were used to estimate the apparent drug-duplex association constants at Tm (KTm) from the following expression (Crothers, D. M. Statistical thermodynamics of nucleic acid melting transitions with coupled binding equilibria, Biopolymers 10, 2147-2160 (1971)): [formula]
In this expression, TmO and Tm are the melting temperatures of the drug-free and drug-bound duplex, respectively, n is the number of drug molecules bound per duplex, ΔHdup is the enthalpy change for the melting of the duplex in the absence of bound drug, and L is the free drug concentration at Tm (which can be estimated by one half the total drug concentration). Values of ΔHdup for the 18C-18R and 18C-18D duplexes were determined from the shapes of their UV melting profiles using the following relationship (Marky, L. A. & Breslauer, K. J. Calculating thermodynamic data for transitions of any molecularity from equilibrium melting curves, Biopolymers 26, 1601-1620 (1987)): [formula]
where α is the fraction of single strand. This calculation yielded ΔHdup values of 157.8 kcal/mol for the 18C-18R duplex and 130.3 kcal/mol for the 18C-18D duplex. For meaningful comparisons, the calculated apparent binding constants at Tm should be extrapolated to a common reference temperature using the standard relationship: [formula]
where ΔHb is the enthalpy of drug binding.

Row | Compound | ΔHb (binding enthalpy) (18C-18D duplex; listed as Neomycin, trisulfate trihydrate) [kcal/mol] | ΔHb (binding enthalpy) (18C-18D duplex; trisulfate trihydrate) [kcal/mol] | binding stoichiometry (18C-18D duplex; ITC, 18C-18D) | inhibition of HIV-1 production (HIV-1) | difference in affinity, neomycin greater than paromomycin (18C-18R duplex; 18C-18R duplex) [fold] | Ka (ΔTm-derived association constant) (18C-18R duplex; 18C-18R duplex) | greater affinity for the 18C-18R duplex than for the 18C-18D duplex (18C-18R duplex; trisulfate trihydrate) | enhancement of thermal stability of the duplex (ΔTm) (18C-18R duplex) [°C] | ΔHb (binding enthalpy) (18C-18D duplex) [kcal/mol] | ΔHb (binding enthalpy) (18C-18D duplex; listed as Paromomycin) [kcal/mol] | greater affinity for the 18C-18R duplex than for the 18C-18D duplex (18C-18R duplex) [fold]
1 | Neomycin trisulfate trihydrate | -6.1 ± 0.1 | -6.1 | three | inhibit HIV-1 production in chronically infected cells | 20 | (8.6 ± 1.5) × 10^6 M^−1 | ≈ 5 fold and 5 fold | 4.8 | – | – | –
2 | NC[C@@H]1O[C@H](O[C@H]2[C@@H](O)[C@H](O[C@@H]3[C@@H](O)[C@H](N)C[C@H](N)[C@H]3O[C@H]3O[C@H](CO)[C@@H](O)[C@H](O)[C@H]3N)O[C@@H]2CO)[C@H](N)[C@@H](O)[C@@H]1O [paromomycin, paromomycin sulfate] | – | – | – | – | – | (4.3 ± 1.6) × 10^5 M^−1 | – | 1.4 | -3.6 | -3.6 ± 0.1 | 2
